Results published in PubChem BioAssay (NCI).
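Dose response: 5 concentrations. Exposure: 48 h. Format: 96-well plates. Endpoint: linear interpolation; highest concentration if not reached. GI50 marks 50% less growth. TGI is the concentration that stops growth completely.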

Key:
Experiment in all cases: NCI anticancer screen, dose series, 48 h; in the data active = GI50 below about 0.43 µM; inactive = the rest
M14 melanoma = test system: M14 melanoma
LOX IMVI melanoma = test system: LOX IMVI melanoma
HS 578T breast = test system: HS 578T breast
MALME-3M melanoma = test system: MALME-3M melanoma
SK-MEL-5 melanoma = test system: SK-MEL-5 melanoma
A498 renal = test system: A498 renal
UACC-62 melanoma = test system: UACC-62 melanoma
NCI/ADR-RES ovarian = test system: NCI/ADR-RES ovarian
SF-268 CNS = test system: SF-268 CNS
MOLT-4 leukemia = test system: MOLT-4 leukemia
NCI-H226 lung = test system: NCI-H226 lung
SR leukemia = test system: SR leukemia
PC-3 prostate = test system: PC-3 prostate
EKVX NSCLC = test system: EKVX NSCLC
SK-OV-3 ovarian = test system: SK-OV-3 ovarian
CCRF-CEM leukemia = test system: CCRF-CEM leukemia
OVCAR-4 ovarian = test system: OVCAR-4 ovarian
HCT-116 colon = test system: HCT-116 colon
MDA-MB-231 breast = test system: MDA-MB-231 breast
K-562 leukemia = test system: K-562 leukemia
TK-10 renal = test system: TK-10 renal
SW-620 colon = test system: SW-620 colon
NCI-H23 lung = test system: NCI-H23 lung
MDA-MB-435 = test system: MDA-MB-435
HT29 colon = test system: HT29 colon
BT-549 breast = test system: BT-549 breast
COLO 205 colon = test system: COLO 205 colon
SK-MEL-2 melanoma = test system: SK-MEL-2 melanoma
786-0 renal = test system: 786-0 renal

C=C(C)[C@@H]1CC[C@]2(C(N)=O)CC[C@]3(C)[C@H](CC[C@@H]4[C@@]5(C)C/C(=C/c6cccnc6)C(=O)C(C)(C)[C@@H]5CC[C@]43C)[C@@H]12
18.6 µM: TGI (LOX IMVI melanoma)
67 µM: TGI (EKVX NSCLC)
25.6 µM: TGI (PC-3 prostate)
41.7 µM: TGI (MALME-3M melanoma)
52.7 µM: TGI (HT29 colon)
66.4 µM: TGI (HCT-116 colon)
29.9 µM: TGI (UACC-62 melanoma)
> 100 µM: TGI (M14 melanoma) | TGI (HS 578T breast) | TGI (A498 renal) | TGI (NCI/ADR-RES ovarian) | TGI (SF-268 CNS) | TGI (MOLT-4 leukemia) | TGI (SR leukemia) | TGI (SK-OV-3 ovarian) | TGI (CCRF-CEM leukemia) | TGI (OVCAR-4 ovarian) | TGI (MDA-MB-231 breast) | TGI (K-562 leukemia) | TGI (TK-10 renal) | TGI (SW-620 colon) | TGI (NCI-H23 lung) | TGI (MDA-MB-435) | TGI (BT-549 breast) | TGI (786-0 renal)
60.7 µM: TGI (NCI-H226 lung)
17.6 µM: TGI (SK-MEL-5 melanoma)
inactive: GI50 (M14 melanoma) 8.05 µM | GI50 (LOX IMVI melanoma) 5.89 µM | GI50 (HS 578T breast) 17.9 µM | GI50 (MALME-3M melanoma) 7.54 µM | GI50 (SK-MEL-5 melanoma) 5.42 µM | GI50 (A498 renal) 23.8 µM | GI50 (UACC-62 melanoma) 5.97 µM | GI50 (NCI/ADR-RES ovarian) 7.13 µM | GI50 (SF-268 CNS) 7.52 µM | GI50 (MOLT-4 leukemia) 3.14 µM | GI50 (NCI-H226 lung) 6.9 µM | GI50 (SR leukemia) 5.1 µM | GI50 (PC-3 prostate) 2.36 µM | GI50 (EKVX NSCLC) 4.99 µM | GI50 (SK-OV-3 ovarian) 10.6 µM | GI50 (CCRF-CEM leukemia) 4.48 µM | GI50 (OVCAR-4 ovarian) 4.28 µM | GI50 (HCT-116 colon) 3.96 µM | GI50 (MDA-MB-231 breast) 15.2 µM | GI50 (K-562 leukemia) 3.75 µM | GI50 (TK-10 renal) 24.7 µM | GI50 (SW-620 colon) 8.82 µM | GI50 (NCI-H23 lung) 14.7 µM | GI50 (MDA-MB-435) 5.52 µM | GI50 (HT29 colon) 6.03 µM | GI50 (BT-549 breast) 8.89 µM | GI50 (COLO 205 colon) 7.14 µM | GI50 (SK-MEL-2 melanoma) 12.1 µM | GI50 (786-0 renal) 14.7 µM
39.8 µM: TGI (SK-MEL-2 melanoma)
27.6 µM: TGI (COLO 205 colon)
